Reference: US8367720B2 (Panorama Research Inc., priority 2007, dated 2013)
Counter-ions that a name gives are not always drawn. Like-named read-outs stand apart in the source and are kept apart here.

Columns and labels:
Pseudomonas aeruginosa [1] = experiment: Measurement of growth curve of Pseudomonas aeruginosa; format: cell-based; details: 10 mM according to FIG. 2 legend
Description: Pseudomonas aeruginosa was inoculated in LB medium, and cultured at a constant temperature of 37° C. in a shaker overnight.

E. coli = experiment: Inhibition zone test (holing method); format: cell-based; details: 37° C., 24 h; compounds 0.05 mg/well, gentamicin 0.10 mg/well
Description: (§1) After being cultured at 37° C. for 24 h, the sizes of inhibition zones were measured.

Pseudomonas aeruginosa [2] = experiment: Inhibition zone test (holing method); format: cell-based; details: 37° C., 24 h; compounds 0.05 mg/well, gentamicin 0.10 mg/well
Description: as §1

Bacillus subtilis = experiment: Inhibition zone test (holing method); format: cell-based; details: 37° C., 24 h; compounds 0.05 mg/well, streptomycin 0.15 mg/well
Description: as §1

[3] = system: Staphylococcus aureus MRSA 5676; experiment: Inhibition zone test (holing method); format: cell-based; details: 37° C., 24 h; compounds 0.05 mg/well, vancomycin 0.15 mg/well
Description: as §1

[4] = system: Staphylococcus aureus wild type; experiment: Inhibition zone test (holing method); format: cell-based; details: 37° C., 24 h; compounds 0.05 mg/well, streptomycin 0.15 mg/well
Description: as §1

Candida albicans = experiment: Inhibition zone test (holing method); format: cell-based; details: 37° C., 24 h; compounds 0.05 mg/well, nysfungin 0.10 mg/well
Description: as §1

[5] = system: Staphylococcus aureus MRSA 5677; experiment: Inhibition zone test (holing method); format: cell-based; details: 37° C., 24 h; compounds 0.05 mg/well, vancomycin 0.15 mg/well
Description: as §1

L1210 leukemia cells = experiment: In vitro antitumor activity to L1210 leukemia cells (MTT); format: cell-based
Description: The cells were cultured in an incubator at 37° C., 5% CO2 and saturated humidity for 48 h. Then 5 mg/mL MTT (20 μL/well) was added and cultured at the same conditions for 4 h, DMSO (150 μL/well) was added, and the (570/630 nm) absorbance (A values) was measured by using micro-plate reader.

[6] = system: suspended Pseudomonas aeruginosa; experiment: Experiment of combination with antibiotics; format: cell-based; details: Pseudomonas aeruginosa cultured 15 h, OD600; ciprofloxacin 0.017 μg/mL, erythromycin 3.75 μg/mL, Andro 350 μg/mL, AL-1 538 μg/mL (1 μmol/mL)
MRSA5676 = experiment: Test of minimal inhibitory concentration (MIC); format: cell-based, Staphylococcus aureus; details: two-fold dilution, 37° C., 24 h, absorbance 595 nm
MRSA5677 = experiment: Test of minimal inhibitory concentration (MIC); format: cell-based, Staphylococcus aureus; details: two-fold dilution, 37° C., 24 h, absorbance 595 nm
[7] = system: Staphylococcus aureus wild type; experiment: Test of minimal inhibitory concentration (MIC); format: cell-based; details: two-fold dilution, 37° C., 24 h, absorbance 595 nm
[8] = system: rats with STZ-induced diabetes mellitus; experiment: Therapeutical effects on STZ-induced diabetes mellitus in rats; details: Day 0, before treatment
Description: 30 Female SD rats, 180-220 g, fasted for 16 h, were subjected to intraperitoneal injection of 60 mg/kg of STZ (purchased from Sigma Company). After 72 h, blood samples were collected from the rats by cutting their tails after fasting 16 h, and blood glucose values were measured by using a blood glucose analyzer (Johnson & Johnson Company). […] Animals were weighed, orbital bleeded, and the sera were separated. According to the instructions of kit (Zhejiang Dongou Biotechnology Co., Ltd.), the contents of triglyceride and total cholesterol were measured. […] The rats of vehicle group were treated with an equivalent volume of solvent (20% DMSO in H2O). After being fasted for 16 h, the rats were weighed, and bleeded for the measurement of blood glucose, triglyceride and total cholesterol. The obtained data were processed by using one-factor analysis of variance (One-way ANOVA) followed by Student's t-test.

NF-kappaB = details: 0.5 mmol/L, HAEC pretreated 48 h, TNF-α 10 U/ml; cited from earlier work
glutathione = details: after injection to animals; especially lung, liver and kidney cells; cited from earlier work
[9] = system: extracellular protease of Pseudomonas aeruginosa; experiment: Measurement of extracellular protease; format: cell-based; details: azo-casein, A440; Andro, AL-1 1 mM; Chuanhuning, Yanhuning, Lianbizhi 10 mM (FIG. 4)
Description: Pseudomonas aeruginosa was inoculated in LB liquid, and cultured at a constant temperature of 37° C. in a shaker overnight. […] After the bacterial liquids were cultured simultaneously at 37° C. for 6 h and centrifuged, supernatant 100 μL was taken, azo-casein 5 mg was added, […] and CaCl2 10 mM were added, and then they were shaken for reaction at 37° C. for 6 h, and the reaction was terminated by adding EDTA-Na. The A440 values of the supernatants were measured (Zielinshi et al., Biol. Chem. 1991, 266, 9754-9763; May et al., Clin. Microbiology Rev. 1991, 4, 191-206).

L1210 cells = format: cell-based
Description: The cells were cultured in an incubator at 37° C., 5% CO2 and saturated humidity. The culture medium was removed, the cells were washed with PBS twice, fixed at −20° C. overnight. Then the cells were centrifuged again, washed with PBS to remove ethanol, cultured with RNase A (200 μg/mL, Sigma) at 37° C. for 1 h, stained with PI (50 μg/mL, Sigma) in dark for 30 min, and detected by using a flow cytometer.

[10] = system: secretion of pyocyanin by Pseudomonas aeruginosa; experiment: Measurement of pyocyanin; format: cell-based; details: 18 h culture, A520; Andro, AL-1 1 mM; Chuanhuning, Yanhuning, Lianbizhi 10 mM (FIG. 3)
Description: Pseudomonas aeruginosa was inoculated in LB medium, then cultured at a constant temperature of 37° C. in a shaker overnight. […] The supernatant was taken and extracted in turn with chloroform and 0.2 N HCl, and A520 values were measured (Zielinshi et al., Biol. Chem. 1991, 266, 9754-9763; May et al., Clin. Microbiology Rev. 1991, 4, 191-206).

[11] = L1210 cells, 48 h, MTT, read-out: IC50

Row | Compound | Inhibition zone diameter, E. coli (E. coli) | Inhibition zone diameter, Pseudomonas aeruginosa (Pseudomonas aeruginosa [2]) | Inhibition zone diameter, Bacillus Subtilis (Bacillus subtilis) | Inhibition zone diameter, Staphylococcus aureus MRSA 5676 [3] | Inhibition zone diameter, Staphylococcus aureus Wild type [4] | Inhibition zone diameter, Candida albicans (Candida albicans) | Inhibition zone diameter, Staphylococcus aureus MRSA 5677 [5] | also measured
1 | potassium dehydroandrograpolide succinate [Chuanhuning] | ^b (incompetence (inhibition zone diameter <4 mm)) | ^b (incompetence (inhibition zone diameter <4 mm)) | ^b (incompetence (inhibition zone diameter <4 mm)) | ^b (incompetence (inhibition zone diameter <4 mm)) | ^b (incompetence (inhibition zone diameter <4 mm)) | ^b (incompetence (inhibition zone diameter <4 mm)) | ^b (incompetence (inhibition zone diameter <4 mm)) | inhibition of the growth of Pseudomonas aeruginosa (growth curve, A600) (Pseudomonas aeruginosa [1]): no direct inhibition effect; IC50 (L1210 leukemia cells; [11]): > 100 µM
2 | Gentamicin | 20.1 ± 1.00 mm | 21.0 ± 1.00 mm |  |  |  |  |  | 
3 | potassium sodium dehydroandrographolide succinate [Yanhuning] | ^b (incompetence (inhibition zone diameter <4 mm)) | ^b (incompetence (inhibition zone diameter <4 mm)) | ^b (incompetence (inhibition zone diameter <4 mm)) | ^b (incompetence (inhibition zone diameter <4 mm)) | ^b (incompetence (inhibition zone diameter <4 mm)) | ^b (incompetence (inhibition zone diameter <4 mm)) | ^b (incompetence (inhibition zone diameter <4 mm)) | inhibition of the growth of Pseudomonas aeruginosa (growth curve, A600) (Pseudomonas aeruginosa [1]): no direct inhibition effect; IC50 (L1210 leukemia cells; [11]): > 100 µM
4 | Nysfungin |  |  |  |  |  | 10.00 ± 1.00 mm |  | 
5 | CC[C@H]1OC(=O)[C@H](C)[C@@H](O[C@H]2C[C@@](C)(OC)[C@@H](O)[C@H](C)O2)[C@H](C)[C@@H](O[C@@H]2O[C@H](C)C[C@H](N(C)C)[C@H]2O)[C@](C)(O)C[C@@H](C)C(=O)[C@H](C)[C@@H](O)[C@]1(C)O [Erythromycin] |  |  |  |  |  |  |  | Survival Rate [6]: 93.9%
6 | CN[C@H](CC(C)C)C(=O)N[C@H]1C(=O)N[C@@H](CC(N)=O)C(=O)N[C@H]2C(=O)N[C@H]3C(=O)N[C@H](C(=O)N[C@H](C(=O)O)c4cc(O)cc(O)c4-c4cc3ccc4O)[C@H](O)c3ccc(c(Cl)c3)Oc3cc2cc(c3O[C@@H]2O[C@H](CO)[C@@H](O)[C@H](O)[C@H]2O[C@H]2C[C@](C)(N)[C@H](O)[C@H](C)O2)Oc2ccc(cc2Cl)[C@H]1O [Vancomycin] |  |  |  | 20.0 ± 1.00 mm |  |  | 21.0 ± 1.00 mm | MIC, MRSA5676 (MRSA5676): 1.56; MIC, MRSA5677 (MRSA5677): 3.13; MIC, Wild type [7]: 1.56
7 | COc1ccc(Cl)cc1C(=O)NCCc1ccc(S(=O)(=O)NC(=O)NC2CCCCC2)cc1 [Glibenclamide] |  |  |  |  |  |  |  | Blood glucose [8]: 26.9 ± 1.56 mmol/L; Body weight [8]: 201 ± 3.61 g; Total cholesterol [8]: 2.57 ± 1.09 mmol/L; Total triglyceride [8]: 7.84 ± 2.21 mmol/L
8 | [H]/N=C(/N)N[C@H]1[C@H](O)[C@@H](O)[C@H](O[C@@H]2O[C@@H](C)[C@](O)(C=O)[C@H]2O[C@@H]2O[C@@H](CO)[C@H](O)[C@@H](O)[C@@H]2NC)[C@@H](N/C(N)=N\[H])[C@@H]1O [Streptomycin] |  |  | 22.1 ± 1.00 mm |  | 21.2 ± 1.00 mm |  |  | 
9 | O=C(O)CCCCC1CCSS1 (stereo not drawn) [lipoic acid, Alpha-lipoic acid] |  |  |  |  |  |  |  | inhibition of NF-kappaB activity induced by TNF-α (NF-kappaB): 81%; increase of glutathione level (glutathione): 30%-70%
10 | C=C1CCC2[C@@](C)(CC[C@@H](O)[C@@]2(C)CO)C1CC(C1=CCOC1=O)S(=O)(=O)[O-].[Na+] (some centres unmarked) [Lianbizhi, andrographolide sodium bisulfite] | ^b (incompetence (inhibition zone diameter <4 mm)) | ^b (incompetence (inhibition zone diameter <4 mm)) | ^b (incompetence (inhibition zone diameter <4 mm)) | ^b (incompetence (inhibition zone diameter <4 mm)) | ^b (incompetence (inhibition zone diameter <4 mm)) | ^b (incompetence (inhibition zone diameter <4 mm)) | ^b (incompetence (inhibition zone diameter <4 mm)) | inhibition of the growth of Pseudomonas aeruginosa (growth curve, A600) (Pseudomonas aeruginosa [1]): no direct inhibition effect; IC50 (L1210 leukemia cells; Mus musculus, L1210, 48 h): > 100 µM
11 | C=C1CCC2[C@](C)(CO)[C@H](O)CC[C@@]2(C)[C@@H]1C/C=C1/C(=O)OCC1OC(=O)/C=C/c1ccc([N+](=O)[O-])cc1 (some centres unmarked) [ANO, 14-[4′-nitrocinnamyl]-3,19-dihydroxy-andrographolide] | ^b (incompetence (inhibition zone diameter <4 mm)) | ^b (incompetence (inhibition zone diameter <4 mm)) | ^b (incompetence (inhibition zone diameter <4 mm)) | 8.1 ± 0.64 mm | 8.3 ± 0.99 mm | ^b (incompetence (inhibition zone diameter <4 mm)) | 6.4 ± 0.42 mm | inhibition of the production/activity of extracellular protease [9]: AL-1>ANO>Andro; MIC, MRSA5676 (MRSA5676): 62.5; IC50 (L1210 leukemia cells; Mus musculus, L1210 cells, 48 h, MTT, read-out: IC50): 9.96 ± 2.25 µM; MIC, MRSA5677 (MRSA5677): 25; effect on cell cycle / apoptosis of L1210 cells (L1210 cells; 10 μM, after 12 h): arrest L1210 cells at G1 prophase; inhibition of the secretion of pyocyanin [10]: AL-1>Andro>ANO; MIC, Wild type [7]: 62.5
12 | COc1cccc2c1C(=O)c1c(O)c3c(c(O)c1C2=O)C[C@@](O)(C(=O)CO)C[C@@H]3O[C@H]1C[C@H](N)[C@H](O)[C@H](C)O1 [Dox, doxorubicin hydrochloride] |  |  |  |  |  |  |  | effect on cell cycle of L1210 cells (L1210 cells; concentration not given): arrested L1210 cells at G2 phase
